{"source": "patent US12370210B2", "about": "“Carbon monoxide as a treatment for neurodegenerative disease” (The General Hospital Corporation, priority 2019, dated 2025)", "test_system": "mouse MPTP toxin model", "experiment": "Mouse MPTP toxin model, striatal DA by HPLC and TH+ neuron counts after inhaled CO", "assay_type": "in vivo", "excerpt": "FIGS. 7A-C. Effect of single dose inhaled CO in the MPTP model. CO (225 ppm; 1 hr) or air (1 hr) administered 1 hr after MPTP or saline injection (normal control saline data not shown; no difference between groups in normal control animals). Animal sacrifice 5 days after MPTP. A. CO preserved striatal dopamine (DA) (P<0.03, t-test; 22 mice/grp). Striatal DA levels measured with HPLC, B. CO reduced loss of substantia nigra pars compacta (SNpc) tyrosine hydroxylase-positive (TH+) neurons. C. Stereological nigral TH+ neuron counts after CO treatment or air (P<0.05, t-test). Mean±std error.\nWe also employed a short-term regimen of the widely used^5253 MPTP toxin model in which DA loss ensues within 5-8 days of MPTP. We elected to initiate iCO treatment only after MPTP exposure in order to model protective treatment of human PD, which begins only after disease onset. We exposed mice to MPTP (40 mg/kg, i.p.)^54,55 or saline (study control) and then treated with a single dose of either iCO (225 ppm) or air (negative control) for 1 hr, for 4 total groups: 1) MPTP/CO (225 ppm; 1 hr), 2) MPTP/air (1 hr), 3) saline/CO (225 ppm; 1 hr), 4) saline/air (1 hr). Five days after MPTP exposure, we measured DA levels in the striata via HPLC and counted TH+ neurons in all groups. MPTP mice treated with CO had ˜46% higher DA levels than those treated with air (2-tailed t-test, p=0.028; FIG. 7A). […] Critically, for TH+ neurons, MPTP mice treated with iCO had ˜22% more TH+ neurons than those treated with air (p<0.05; FIGS. 7B-C).", "data": [{"compound": "[C-]#[O+]", "note": "[CO, carbon monoxide]", "values": [{"measurement": "striatal DA levels higher than air-treated MPTP mice", "setting": "MPTP 40 mg/kg i.p., CO 225 ppm 1 hr, single dose 1 hr after MPTP, 5 days after MPTP, p=0.028", "result": "~46", "unit": "%"}, {"measurement": "more TH+ neurons than air-treated MPTP mice", "setting": "MPTP 40 mg/kg i.p., iCO 225 ppm 1 hr, 5 days after MPTP, p<0.05", "result": "~22", "unit": "%"}, {"measurement": "striatal DA levels in saline-treated mice", "setting": "saline instead of MPTP, iCO 225 ppm 1 hr, n=22 per group, p>0.05 vs air", "result": "97.0 ± 2.4", "unit": "pmol/mg"}, {"measurement": "TH+ cell counts in saline-treated mice", "setting": "saline instead of MPTP, iCO 225 ppm 1 hr, p>0.05 vs air", "result": "7,437±545"}]}]}
